Reference: PMC4925160, “Mode of action of DNA-competitive small molecule inhibitors of tyrosyl DNA phosphodiesterase 2” (Biochemical Journal, 2016)

Target: T1, tyrosyl-DNA phosphodiesterase 2 (hTDP2-CAT) (Homo sapiens, UniProt O95551, C273S)
T1 construct: gene TDP2; catalytic domain, residues 113–362
T1 sequence (O95551 113-362 C273S): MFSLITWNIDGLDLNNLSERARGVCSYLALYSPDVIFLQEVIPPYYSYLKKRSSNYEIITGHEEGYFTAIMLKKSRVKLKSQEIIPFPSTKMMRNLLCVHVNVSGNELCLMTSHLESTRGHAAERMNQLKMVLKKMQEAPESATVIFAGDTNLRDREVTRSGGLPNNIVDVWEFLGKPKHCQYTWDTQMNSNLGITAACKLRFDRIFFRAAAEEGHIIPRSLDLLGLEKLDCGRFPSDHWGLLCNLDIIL
Assay: fluorescence-based […]'-phosphotyrosyl oligonucleotide enzyme assay
Format: biochemical

N#Cc1ccc2cc3c(=O)[nH]c(=O)nc-3n(-c3cccc(CO)c3)c2c1 [compound 149, 149]
IC50: 489 nM
